These are literature values, as cited in US20050249795A1, “Gemcitabine compositions for better drug delivery” (NEOPHARM, INC., priority 2002, published 2005).

Where a name gives a salt, the structure may show the parent alone.

The test system of data set [1] is Lewis lung murine xenograft.
Data set [2] deals with NCI-H460 xenografts. Conditions: in vivo, NCI-H460 xenograft.
The test system of data set [3] is CALU-6 human lung xenografts. Conditions: in vivo, CALU-6 human lung xenograft. On the technique in general: A xenograft is tissue or cells of one species grown in another, often human tumour cells in immunodeficient mice.
Data set [4] concerns CEM T lymphoblastoid cells.
Data set [5] deals with LX-1 human lung xenografts. Conditions: in vivo, LX-1 human lung xenograft.
Data set [6] has as its system NCI-H520 xenografts. Conditions: in vivo, NCI-H520 xenograft.
For data set [7] the following is noted: in patients.

For the molecule `Nc1ccn([C@@H]2O[C@H](CO)[C@@H](O)C2(F)F)c(=O)n1` [Gemcitabine], the “activity with cisplatin in vitro” value is “dose-dependent synergistic activity”. The interaction with cisplatin result in data set [1] is recorded as “synergistic”. Also, the “activity in combination with cisplatin” value in data set [2] was “minimal activity”. In data set [3], the “activity in combination with cisplatin” value is reported as “showed activity”. The “internucleosomal DNA fragmentation” value in data set [4] is given as “induces internucleosomal DNA fragmentation”. Besides, the “activity in combination with cisplatin” value in data set [5] was “showed activity”. The “activity in combination with cisplatin” value in data set [6] is given as “minimal activity”.
`Nc1ccn([C@@H]2O[C@H](CO)[C@@H](O)C2(F)F)c(=O)n1` [Gemcitabine HCL, gemcitabine hydrochloride]: the half-life entry in data set [7] is “very short half-life”.
